# Like-named read-outs stand apart in the source and are kept apart here.
# Tests used:
# [1] = target: human TLR7 (Homo sapiens (Human), UniProt Q9NYK1); test: TLR7 inhibition reporter assay (HEK-Blue cells, SEAP reporter, gardiquimod stimulation); type: cell-based
# [2] = target: human TLR8 (Homo sapiens (Human), UniProt Q9NR97); test: TLR8 inhibition reporter assay (HEK-Blue cells, SEAP reporter, R848 stimulation);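 also: compounds tested from 0.05 nM to 50 µM, 22 h at 37 °C, SEAP measured with HEK-Blue Detection, inhibition relative to agonist plus DMSO versus a known inhibitor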
# human TLR8, sequence (Q9NR97 27-1041): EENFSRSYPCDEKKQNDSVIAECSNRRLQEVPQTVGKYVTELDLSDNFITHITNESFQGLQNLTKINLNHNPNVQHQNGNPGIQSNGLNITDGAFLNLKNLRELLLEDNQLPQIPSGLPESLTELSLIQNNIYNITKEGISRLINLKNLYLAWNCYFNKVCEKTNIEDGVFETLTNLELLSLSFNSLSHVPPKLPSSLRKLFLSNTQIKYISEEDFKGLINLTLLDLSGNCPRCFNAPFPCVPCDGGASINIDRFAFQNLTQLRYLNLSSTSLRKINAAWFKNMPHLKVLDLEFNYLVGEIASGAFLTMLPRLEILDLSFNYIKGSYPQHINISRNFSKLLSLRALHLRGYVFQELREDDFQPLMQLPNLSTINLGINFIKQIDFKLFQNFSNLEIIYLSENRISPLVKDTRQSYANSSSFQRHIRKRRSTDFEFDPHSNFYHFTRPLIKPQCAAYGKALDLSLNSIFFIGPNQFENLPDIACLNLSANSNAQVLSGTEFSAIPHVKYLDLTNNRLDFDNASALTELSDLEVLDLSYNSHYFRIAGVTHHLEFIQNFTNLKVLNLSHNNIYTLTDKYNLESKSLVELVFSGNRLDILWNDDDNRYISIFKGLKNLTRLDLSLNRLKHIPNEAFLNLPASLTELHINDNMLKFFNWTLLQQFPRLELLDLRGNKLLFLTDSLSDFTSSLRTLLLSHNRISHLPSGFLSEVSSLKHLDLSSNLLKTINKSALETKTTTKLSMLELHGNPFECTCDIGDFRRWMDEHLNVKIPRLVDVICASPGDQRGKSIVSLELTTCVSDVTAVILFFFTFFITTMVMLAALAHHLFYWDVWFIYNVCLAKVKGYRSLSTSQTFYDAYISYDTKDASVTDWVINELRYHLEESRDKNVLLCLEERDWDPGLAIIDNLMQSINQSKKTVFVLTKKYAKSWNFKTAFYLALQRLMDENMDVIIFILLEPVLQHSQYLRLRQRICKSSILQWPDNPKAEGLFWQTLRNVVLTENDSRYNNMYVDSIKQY
# [3] = target: human TLR9 (Homo sapiens (Human), UniProt Q9NR96); test: TLR9 inhibition reporter assay (HEK-Blue cells, SEAP reporter, ODN2006 stimulation);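 also: compounds tested over 0.05 nM to 50 µM, 22 h incubation, inhibition taken as SEAP signal drop from agonist plus DMSO wells toward a known inhibitor control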
# human TLR9, sequence (Q9NR96 26-1032): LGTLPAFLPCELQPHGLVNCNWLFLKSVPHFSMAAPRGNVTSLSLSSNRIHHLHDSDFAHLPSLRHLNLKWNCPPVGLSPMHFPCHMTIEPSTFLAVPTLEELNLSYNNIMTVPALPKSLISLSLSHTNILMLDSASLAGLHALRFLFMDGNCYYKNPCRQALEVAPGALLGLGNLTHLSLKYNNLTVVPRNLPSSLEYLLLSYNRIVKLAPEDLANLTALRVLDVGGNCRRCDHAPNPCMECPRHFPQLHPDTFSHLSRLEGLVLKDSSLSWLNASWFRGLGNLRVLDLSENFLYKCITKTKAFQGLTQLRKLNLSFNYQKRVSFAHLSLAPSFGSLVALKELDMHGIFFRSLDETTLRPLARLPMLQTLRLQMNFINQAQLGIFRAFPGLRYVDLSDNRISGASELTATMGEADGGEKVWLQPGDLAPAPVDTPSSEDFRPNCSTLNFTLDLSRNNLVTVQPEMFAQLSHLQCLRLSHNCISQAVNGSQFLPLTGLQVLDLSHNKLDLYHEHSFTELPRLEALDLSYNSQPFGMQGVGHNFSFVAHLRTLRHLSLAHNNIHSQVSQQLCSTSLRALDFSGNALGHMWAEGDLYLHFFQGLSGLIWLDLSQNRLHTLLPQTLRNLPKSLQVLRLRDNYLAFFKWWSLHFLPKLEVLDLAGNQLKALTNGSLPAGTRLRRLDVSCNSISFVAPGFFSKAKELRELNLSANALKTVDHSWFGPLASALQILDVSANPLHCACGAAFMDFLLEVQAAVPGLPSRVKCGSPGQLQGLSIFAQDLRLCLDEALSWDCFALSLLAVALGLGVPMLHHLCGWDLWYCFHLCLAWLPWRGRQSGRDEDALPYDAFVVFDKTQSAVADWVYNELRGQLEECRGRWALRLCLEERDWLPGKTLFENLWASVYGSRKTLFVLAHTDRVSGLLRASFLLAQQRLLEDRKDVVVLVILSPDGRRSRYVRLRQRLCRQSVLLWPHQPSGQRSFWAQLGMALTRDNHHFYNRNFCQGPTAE
# [4] = HEK-Blue cells overexpressing human TLR7, gardiquimod 7.5 μM
# [5] = TLR8 IC50, HEK-Blue cells overexpressing human TLR8, R848 15.9 μM
# [6] = TLR9 IC50, HEK-Blue cells overexpressing human TLR9, ODN2006 5 nM
# [7] = read-out: TLR8 IC50, HEK-Blue cells overexpressing human TLR8, R848 15.9 μM
# [8] = read-out: TLR9 IC50, HEK-Blue cells overexpressing human TLR9, ODN2006 5 nM
# [9] = HEK-Blue cells, gardiquimod 7.5 μM
# [10] = read-out: TLR8 IC50, HEK-Blue cells, R848 15.9 μM
# [11] = read-out: TLR9 IC50, HEK-Blue cells, ODN2006 5 nM
# human TLR7, sequence (Q9NYK1 27-1049): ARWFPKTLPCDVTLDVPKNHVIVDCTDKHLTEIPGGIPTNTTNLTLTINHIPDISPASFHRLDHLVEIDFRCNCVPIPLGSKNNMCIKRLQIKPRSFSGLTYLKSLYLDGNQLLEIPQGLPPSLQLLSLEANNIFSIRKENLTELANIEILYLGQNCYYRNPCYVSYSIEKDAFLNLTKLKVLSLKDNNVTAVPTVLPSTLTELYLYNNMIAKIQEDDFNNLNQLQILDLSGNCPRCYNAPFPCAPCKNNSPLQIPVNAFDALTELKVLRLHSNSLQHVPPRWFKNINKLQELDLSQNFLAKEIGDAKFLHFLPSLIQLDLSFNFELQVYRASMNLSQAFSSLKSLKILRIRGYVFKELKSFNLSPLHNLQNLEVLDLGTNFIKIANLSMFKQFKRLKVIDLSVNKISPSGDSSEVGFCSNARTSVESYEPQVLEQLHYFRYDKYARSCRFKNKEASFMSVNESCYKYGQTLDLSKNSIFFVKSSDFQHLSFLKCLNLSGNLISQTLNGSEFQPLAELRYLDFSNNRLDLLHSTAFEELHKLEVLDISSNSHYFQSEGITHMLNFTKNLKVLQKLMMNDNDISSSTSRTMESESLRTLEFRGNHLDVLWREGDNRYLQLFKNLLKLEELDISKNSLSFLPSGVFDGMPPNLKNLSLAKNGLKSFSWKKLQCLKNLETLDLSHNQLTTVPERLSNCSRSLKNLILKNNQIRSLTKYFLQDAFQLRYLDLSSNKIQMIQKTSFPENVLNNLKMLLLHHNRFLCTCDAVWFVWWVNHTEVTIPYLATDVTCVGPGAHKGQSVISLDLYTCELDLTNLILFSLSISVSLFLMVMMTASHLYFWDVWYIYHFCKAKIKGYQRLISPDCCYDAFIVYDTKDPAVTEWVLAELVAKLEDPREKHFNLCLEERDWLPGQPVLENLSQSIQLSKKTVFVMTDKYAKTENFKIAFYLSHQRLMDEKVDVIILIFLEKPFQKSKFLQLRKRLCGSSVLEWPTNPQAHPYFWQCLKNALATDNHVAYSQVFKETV
SMILES,"IC50 [1, 4] [nM]","IC50 [2, 5] [nM]","IC50 [3, 6] [nM]","IC50 [2, 7] [nM]","IC50 [3, 8] [nM]","IC50 [1, 9] [nM]","IC50 [2, 10] [nM]","IC50 [3, 11] [nM]"
"CNCCC(=O)N1CCC(c2ccc3[nH]c(-c4cc(C)nc(C)c4)c(C(C)C)c3c2)CC1 [Example 183, 1-(4-(2-(2,6-dimethylpyridin-4-yl)-3-isopropyl-1H-indol-5-yl)piperidin-1-yl)-3-(methylamino)propan-1-one]",0.9,19.7,323,,,,,
"Cc1cc(-c2[nH]c3ccc(C4CCN(CC(=O)N5CCC[C@H]5CO)CC4)cc3c2C(C)C)cc(C)n1 [Example 274, (S)-2-(4-(2-(2,6-dimethylpyridin-4-yl)-3-isopropyl-1H-indol-5-yl)piperidin-1-yl)-1-(2-(hydroxymethyl)pyrrolidin-1-yl)ethan-1-one]",1.9,,,9.1,261,,,
"Cc1cc(-c2[nH]c3ccc(C4CCN(CC(=O)N(CCO)C(C)C)CC4)cc3c2C(C)C)cc(C)n1 [Example 299, 2-(4-(2-(2,6-dimethylpyridin-4-yl)-3-isopropyl-1H-indol-5-yl)piperidin-1-yl)-N-(2-hydroxyethyl)-N-isopropylacetamide]",24,,,112,2630,,,
"Cc1cc(-c2[nH]c3ccc(C4CCN(CC(=O)NCCC(C)O)CC4)cc3c2C(C)C)cc(C)n1 (stereo not drawn) [Example 262, 2-(4-(2-(2,6-dimethylpyridin-4-yl)-3-isopropyl-1H-indol-5-yl)piperidin-1-yl)-N-(3-hydroxybutyl)acetamide]",2,,,6,715,,,
"Cc1cc(-c2[nH]c3ccc(C4CCN(CC(=O)N(C)C(C)C)CC4)cc3c2C(C)C)cc(C)n1 [Example 244, 2-(4-(2-(2,6-dimethylpyridin-4-yl)-3-isopropyl-1H-indol-5-yl)piperidin-1-yl)-N-isopropyl-N-methylacetamide]",8.2,20.3,990,,,,,
"Cc1cc(-c2[nH]c3ccc(C4CCN(CC(=O)N5CCCC(F)(F)C5)CC4)cc3c2C(C)C)cc(C)n1 [Example 285, 1-(3,3-difluoropiperidin-1-yl)-2-(4-(2-(2,6-dimethylpyridin-4-yl)-3-isopropyl-1H-indol-5-yl)piperidin-1-yl)ethan-1-one]",4,,,13.9,423,,,
"Cc1cc(-c2[nH]c3ccc(C4CCN(CC(=O)N[C@H]5CC[C@H](O)CC5)CC4)cc3c2C(C)C)cc(C)n1 [Example 211, 2-(4-(2-(2,6-dimethylpyridin-4-yl)-3-isopropyl-1H-indol-5-yl)piperidin-1-yl)-N-((1r,4r)-4-hydroxycyclohexyl)acetamide]",1.1,,,4.2,245,,,
"CC(C)c1c(-c2ccnc(Cl)c2F)[nH]c2ccc(C3CCNCC3)cc12 [Example 21, 2-(2-chloro-3-fluoropyridin-4-yl)-3-isopropyl-5-(piperidin-4-yl)-1H-indole]",1.5,,,4,2980,,,
"CCc1c(-c2ccnc(OC)c2)[nH]c2ccc(C3CCN(C4C[C@H]5CC[C@@H](C4)N5C)CC3)cc12 (stereo partly drawn) [Example 791, 3-ethyl-2-(2-methoxypyridin-4-yl)-5-(1-((1R,3s,5S)-8-methyl-8-azabicyclo[3.2.1]octan-3-yl)piperidin-4-yl)-1H-indole]",666,,,158,1600,,,
"Cc1cc(-c2[nH]c3ccc(C4CCN(C(=O)CCn5nc(C)cc5C)CC4)cc3c2C(C)C)cc(C)n1 [Example 125, 3-(3,5-dimethyl-1H-pyrazol-1-yl)-1-(4-(2-(2,6-dimethylpyridin-4-yl)-3-isopropyl-1H-indol-5-yl)piperidin-1-yl)propan-1-one]",47.4,,,224,45600,,,
"Cc1cc(-c2[nH]c3ccc(C4CCNCC4)cc3c2C(C)C)c(C(N)=O)cn1 [Example 15, 4-(3-isopropyl-5-(piperidin-4-yl)-1H-indol-2-yl)-6-methylnicotinamide]",1540,,,448,26500,,,
"Cc1cc(-c2[nH]c3ccc(C4CCN(C(=O)c5cccn(C6CC6)c5=O)CC4)cc3c2C(C)C)cc(C)n1 [Example 123, 1-cyclopropyl-3-(4-(2-(2,6-dimethylpyridin-4-yl)-3-isopropyl-1H-indol-5-yl)piperidine-1-carbonyl)pyridin-2(1H)-one]",20.5,,,114,36600,,,

# Other lines, results leading:
"IC50 [1, 4] [nM]","IC50 [2, 5] [nM]","IC50 [3, 6] [nM]","IC50 [2, 7] [nM]","IC50 [3, 8] [nM]","IC50 [1, 9] [nM]","IC50 [2, 10] [nM]","IC50 [3, 11] [nM]",SMILES
230,,,895,29900,,,,"Cc1cc(-c2[nH]c3ccc(C4CCN(CC(F)(F)F)CC4)cc3c2C(C)C)cc(C)n1 [Example 310, 2-(2,6-dimethylpyridin-4-yl)-3-isopropyl-5-(1-(2,2,2-trifluoroethyl)piperidin-4-yl)-1H-indole]"
7.7,,,55.2,3920,,,,"Cc1cc(-c2[nH]c3ccc(C4CCN(C(=O)CN5CCNC(=O)C5)CC4)cc3c2C(C)C)cc(C)n1 [Example 379, 4-(2-(4-(2-(2,6-dimethylpyridin-4-yl)-3-isopropyl-1H-indol-5-yl)piperidin-1-yl)-2-oxoethyl) piperazin-2-one]"
1.7,,,5.8,7430,,,,"Cc1cc(-c2[nH]c3ccc(C4CCN(CC(=O)N(C)C)CC4)cc3c2C(C)C)c(F)c(C)n1 [Example 645, 2-(4-(2-(3-fluoro-2,6-dimethylpyridin-4-yl)-3-isopropyl-1H-indol-5-yl)piperidin-1-yl)-N,N-dimethylacetamide]"
1.7,,,11.1,572,,,,"Cc1cc(-c2[nH]c3ccc(C4CCN(C(=O)CN5CCCC(O)C5)CC4)cc3c2C(C)C)cc(C)n1 (stereo not drawn) [Example 383, 1-(4-(2-(2,6-dimethylpyridin-4-yl)-3-isopropyl-1H-indol-5-yl)piperidin-1-yl)-2-(3-hydroxypiperidin-1-yl)ethan-1-one]"
3.5,,,11.2,447,,,,"Cc1cc(-c2[nH]c3ccc(C4CCN(C(=O)CN(C)C(C)C)CC4)cc3c2C(C)C)cc(C)n1 [Example 354, 1-(4-(2-(2,6-dimethylpyridin-4-yl)-3-isopropyl-1H-indol-5-yl)piperidin-1-yl)-2-(isopropyl(methyl)amino)ethan-1-one]"
14.7,,,104,36000,,,,"Cc1cc(-c2[nH]c3ccc(C4CCN(C(=O)CN5CC(F)(F)C5)CC4)cc3c2C(C)C)cc(C)n1 [Example 340, 2-(3,3-difluoroazetidin-1-yl)-1-(4-(2-(2,6-dimethylpyridin-4-yl)-3-isopropyl-1H-indol-5-yl)piperidin-1-yl)ethan-1-one]"
5.3,,,6.7,1190,,,,"Cc1cc(-c2[nH]c3ccc(C4CCN(Cc5cn(C)nn5)CC4)cc3c2C(C)C)cc(C)n1 [Example 442, 2-(2,6-dimethylpyridin-4-yl)-3-isopropyl-5-(1-((1-methyl-1H-1,2,3-triazol-4-yl)methyl)piperidin-4-yl)-1H-indole]"
6.7,,,18.3,467,,,,"Cc1cc(-c2[nH]c3ccc(C4CCN(C(=O)CNCC(C)(C)C)CC4)cc3c2C(C)C)cc(C)n1 [Example 337, 1-(4-(2-(2,6-dimethylpyridin-4-yl)-3-isopropyl-1H-indol-5-yl)piperidin-1-yl)-2-(neopentylamino)ethan-1-one]"
309,,,50.4,206,,,,"CCc1c(-c2ccnc(OC)c2)[nH]c2ccc(C3CCN(C4CCN(C(C)C)CC4)CC3)cc12 [Example 786, 3-ethyl-5-(1′-isopropyl-[1,4′-bipiperidin]-4-yl)-2-(2-methoxypyridin-4-yl)-1H-indole]"
,,,,,283,53.3,230,"Cc1ncc(CN2CCC(c3ccc4[nH]c(-c5ccnc(N)c5)c(C(C)C)c4c3)CC2)[nH]1 [Example 818, 4-(3-isopropyl-5-(1-((2-methyl-1H-imidazol-5-yl)methyl)piperidin-4-yl)-1H-indol-2-yl)pyridin-2-amine]"
,,,,,12.7,5.2,753,"CC(=O)N1CCC(N2CCC(c3ccc4[nH]c(-c5ccnc(C)c5)c(C(C)C)c4c3)CC2)CC1 [Example 827, 1-(4-(3-isopropyl-2-(2-methylpyridin-4-yl)-1H-indol-5-yl)-[1,4′-bipiperidin]-1′-yl)ethan-1-one]"
10.2,,,4.5,1570,,,,"CCC(O)CN1CCC(c2ccc3[nH]c(-c4ccnc(C)c4)c(C(C)C)c3c2)CC1 (stereo not drawn) [Example 664, 1-(4-(3-isopropyl-2-(2-methylpyridin-4-yl)-1H-indol-5-yl)piperidin-1-yl)butan-2-ol]"
31.4,,,2.7,2210,,,,"Cc1cc(-c2[nH]c3ccc(C4CCN(C5CCOCC5)CC4)cc3c2C(C)C)c(C)cn1 [Example 714, 2-(2,5-dimethylpyridin-4-yl)-3-isopropyl-5-(1-(tetrahydro-2H-pyran-4-yl)piperidin-4-yl)-1H-indole]"
33,,,9.7,2670,,,,"Cc1cc(-c2[nH]c3ccc(C4CCN(C(C)C)CC4)cc3c2C(C)C)c(C)cn1 [Example 641, 2-(2,5-dimethylpyridin-4-yl)-3-isopropyl-5-(1-isopropylpiperidin-4-yl)-1H-indole]"
4.5,,,27,481,,,,"Cc1cc(-c2[nH]c3ccc(C4CCN(C(=O)CN5C[C@H](C)C[C@@H]5CO)CC4)cc3c2C(C)C)cc(C)n1 [Example 410, 1-(4-(2-(2,6-dimethylpyridin-4-yl)-3-isopropyl-1H-indol-5-yl)piperidin-1-yl)-2-((2R,4R)-2-(hydroxymethyl)-4-methylpyrrolidin-1-yl)ethan-1-one]"

# From patent publication US10660877B2 (BRISTOL-MYERS SQUIBB COMPANY, priority 2016, dated 2020)
